Measured values reported in patent US20100120769A1, “CYCLOHEXYL PIPERAZINYL METHANONE DERIVATIVES” (priority 2006, published 2010).

molecular target: T1, histamine 3 receptor (H3R) (Homo sapiens, UniProt Q9Y5N1); test: Binding assay with 3H-(R)α-methylhistamine (competition binding, HR3-CHO membranes); details: membrane of the human HR3-CHO cell line, 3H(R)α-Methylhistamine 1 nM; Ki calculated from IC50 by Cheng-Prusoff
T1 construct: expressed in transfected cells; host or cells: CHO cells (HR3-CHO)
T1 sequence (Q9Y5N1 whole entry): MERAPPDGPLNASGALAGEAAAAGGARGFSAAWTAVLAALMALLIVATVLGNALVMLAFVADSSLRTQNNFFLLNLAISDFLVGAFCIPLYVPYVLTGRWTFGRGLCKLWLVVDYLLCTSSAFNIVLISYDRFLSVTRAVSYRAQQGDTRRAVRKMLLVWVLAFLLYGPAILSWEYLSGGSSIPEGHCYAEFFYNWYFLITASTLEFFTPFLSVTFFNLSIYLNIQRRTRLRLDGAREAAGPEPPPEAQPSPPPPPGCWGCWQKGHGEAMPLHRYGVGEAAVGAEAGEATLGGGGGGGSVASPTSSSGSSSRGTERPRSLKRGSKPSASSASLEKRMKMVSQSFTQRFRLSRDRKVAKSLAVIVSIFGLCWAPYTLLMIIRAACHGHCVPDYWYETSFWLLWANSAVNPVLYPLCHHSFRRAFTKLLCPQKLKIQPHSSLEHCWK
Experimental: Binding Assay with ^3H-(R)α-methylhistamine
Saturation binding experiments were performed using HR3-CHO membranes prepared as described in Takahashi, K, Tokita, S., Kotani, H. (2003) J. Pharmacol. Exp. Therapeutics 307, 213-218.
An appropriate amount of membrane (60 to 80 μg protein/well) was incubated with increasing concentrations of ^3H(R)α-Methylhistamine di-hydrochloride (0.10 to 10 nM). Non specific binding was determined using a 200 fold excess of cold (R)α-Methylhistamine dihydrobromide (500 nM final concentration). The incubation was carried out at room temperature (in deep-well plates shaking for three hours). The final volume in each well was 250 μl. The incubation was followed by rapid filtration on GF/B filters (pre-soaked with 100 μl of 0.5% PEI in Tris 50 mM shaking at 200 rpm for two hours). The filtration was made using a cell-harvester and the filter plates were then washed five times with ice cold washing buffer containing 0.5 M NaCl. After harvesting, the plates were dried at 55° C. for 60 min, then we added scintillation fluid (Microscint 40, 40 microl in each well) and the amount of radioactivity on the filter was determined in Packard top-counter after shaking the plates for two hours at 200 rpm at room temperature.
Binding Buffer: 50 mM Tris-HCl pH 7.4 and 5 mM MgCl2x6H2O pH 7.4. Washing Buffer: 50 mM Tris-HCl pH 7.4 and 5 mM MgCl2x6H2O and 0.5 M NaCl pH 7.4.
Indirect measurement of affinity of H3R inverse agonists: twelve increasing concentrations (ranging from 10 μM to 0.3 nM) of the selected compounds were always tested in competition binding experiments using membrane of the human HR3-CHO cell line. An appropriate amount of protein, e.g. approximately 500 cpm binding of RAMH at Kd, were incubated for 1 hour at room temperature in 250 μl final volume in 96-well plates in presence of ^3H(R)α-Methylhistamine (1 nM final concentration=Kd). […]
All compounds were tested at a single concentration in duplicates. […] Ki's were calculated from IC50 based on Cheng-Prusoff equation (Cheng, Y, Prusoff, W H (1973) Biochem Pharmacol 22, 3099-3108).

`Cc1ccc(NC2CCC(C(=O)N3CCN(C(C)C)CC3)CC2)cc1` (stereo not drawn) [Example 1, (4-Isopropyl-piperazin-1-yl)-(4-p-tolylamino-cyclohexyl)-methanone] and `CC(C)N1CCN(C(=O)[C@H]2CC[C@H](NC(=O)N(C)c3cccc(F)c3)CC2)CC1` [Example 32, 1-(3-fluoro-phenyl)-3-[trans-4-(4-isopropyl-piperazine-1-carbonyl)-cyclohexyl]-1-methyl-urea] are within 1.5-fold of each other in Ki: 52.8 nM for the first, 38.4 nM for the second.

`CC(C)N1CCN(C(=O)[C@H]2CC[C@H](NC(=O)c3ccc(Cl)cc3Cl)CC2)CC1` [Example 13, 2,4-dichloro-N-[trans-4-(4-isopropyl-piperazine-1-carbonyl)-cyclohexyl]-benzamide] gave a Ki of 88.1 nM.
